Test results published in patent publication US9714245B2, “Carboline compounds usable in the treatment of neurodegenerative diseases” (ALZPROTECT, priority 2013, dated 2017).

Tests used:
secreted Aβ1-40 = test: Aβ1-40 secretion by APP-transfected neuroblastoma cells (ELISA); type: cell-based; details: Homo sapiens, Neuroblastoma cell; SKNSH-SYSY APPWT cells; concentration decreasing secreted Aβ1-40 to 50% of basal amount
Protocol: (§1) Cell Cultures and Transfections to Test Activity on Aβ1-40 and Aβ1-42 Secretion
(§2) Human neuroblastoma cell line SKNSH-SYSY (ATCC® Catalog No. CRL-2266™), HEK (ATCC® CRL-1573™) and COS-1 (ATCC® CRL-1650™) cells were maintained in Dulbecco's modified Eagle medium (DMEM, GIBCO BRL) supplemented with 10% fetal calf serum, 2 mM L-glutamine, 1 mM non-essential amino acids, 50 units/ml penicillin/streptomycin (Invitrogen, France) in a 5% CO2 humidified incubator at 37° C. APP695 cDNA was subcloned into eukaryotic expression vector pcDNA3 (Invitrogen), allowing for a G418 (Invitrogen) selection of clones. This APP cDNA coding for the 695 amino acid long isoform was transfected into SKNSH-SYSY cells using the ethyleneimine polymer ExGen 500 (Euromedex) according to the manufacturer's instructions. The cells expressing APP (SKNSH-SYSY APP^WT) were selected by the addition of 200 μg/ml G418 in the cell medium. To quantify AR which released in the cell culture medium, the collected medium was spun at 200×g to eliminate the cell debris. The concentrations of secreted Aâ1-40 and Aβ1-42 were determined using the Human Aβ (1-40) Assay Kit (IBL) or the INNOTEST™ beta-Amyloid (1-42) ELISA Kit (Innogenetics), according to manufacturer's instructions. The results were expressed as IC50, i.e. the concentration able to decrease to 50% the basal amount of secreted Aβ peptide 1-40 and 1-42.

secreted Aβ1-42 = test: Aβ1-42 secretion by APP-transfected neuroblastoma cells (ELISA); type: cell-based; details: Homo sapiens, Neuroblastoma cell; SKNSH-SYSY APPWT cells; concentration decreasing secreted Aβ1-42 to 50% of basal amount
Protocol: as §1, §2

CTFα [1] = test: Quantification of APP-CTFα by Western blot in SY5Y-APPWT cells; type: cell-based, Human; details: compared to a control with a value of 100
Protocol: Quantifications of APP-CTFs and AICD
After treatment, SY5Y-APP^WT cells were scrapped and lysed in 1× Lysis Buffer (250 mM NaCl, 50 mM Tris, pH 8.8, 5 mM EDTA, 2.5% Triton X-100, 1% Deoxycholate, 0.1% SDS). For the Western blotting, an equal amount of total proteins (20 μg/lane) was loaded on a 16.5% Tris-Tricine or 8-16% Tris-Glycine polyacrylamide gel.
SDS-polyacrylamide gel electrophoresis (PAGE) was performed using the Criterion™ Tris-Tricine-precast or Bis-Tris-precast criterion gels (Bio-Rad Bioresearch division). Proteins were transferred to a […] nitrocellulose membrane (Hybond, Amersham Biosciences) at 2.5 mA/cm2 per gel using the Criterion™ Blotter system (Amersham Biosciences), according to the manufacturer's instructions. Proteins were reversibly stained with Ponceau Red in order to check the quality of the transfer of protein. The membranes were blocked in 25 mM Tris-HCl pH 8.0, 150 mM NaCl, 0.1% Tween-20 (v/v) and 5% (w/v) of skimmed milk for 30 min. Membranes were incubated overnight at 4° C. with appropriate dilution of the primary antibodies, and were incubated for 1 h at room temperature with secondary antibody. […] Quantifications were calculated with Image J software (NIH) and the data were collected using Excel Software (Microsoft). The loading variations between Western blot lanes were normalized according to the tubulin signal. Quantification of CTFα and AICD were compared to control conditions (considered as 100 in arbitrary units) and are presented for two concentrations of the drug: 1 and 10 μM.

[2] = Cytotoxicity evaluation (MTS assay); type: cell-based, Human; details: human, SY5Y-APPWT neuroblastoma cells (expressing APP); SY5Y-APPWT cells, 24 h treatment, MTS
Protocol: Human neuroblastoma cell line SY5Y-APP^WT was used to assess the cytotoxic effects of each compound. SY5Y-APP^WT cells were seeded at 20000 cells/well onto 96-well plates and were cultured in Dulbecco's modified Eagle medium (DMEM, Invitrogen) supplemented with 10% fetal calf serum (PAA), 2 mM L-glutamine (Invitrogen), 1 mM non-essential amino acids (Invitrogen), 50 units/ml penicillin/streptomycin (Invitrogen), and 200 μg G418=geneticin (Invitrogen) (selection for cells expressing APP) in a 5% CO2 humidified incubator at 37° C. After 24 h, the cells were washed and incubated with the compound at 0.1; 0.3; 1; 3; 10; 30 and 100 μM or with DMSO as control diluted in the same culture medium at 37° C. in 5% CO2. After 24 h of treatment, cytotoxicity was determined by using colorimetric MTS assay (CellTiter 96® Aqueous One Solution Cell Proliferation Assay-MTS Promega) according to the protocol of the manufacturer. Absorbance was read at 490 nm and results were expressed as % from control condition considered as 100%.

CTFα [3] = test: In vivo acute treatment, CTFα in brain tissue; set-up: species or system C57Bl6 mice; details: acute p.o. 24 h
Protocol: Female C57Bl6 mice of 4 month-old were treated p.o. (gavage) with either vehicle (control) or drug at 3; 6; 12.5 and 25 mg/kg (n=6 per group) for 24 h. The product was administered with a disposable Rodent Feeding Tube ECIMED Ref#V0104030 (4 mm×30 mm). After 24 h, mice were sacrificed and their troncal blood was collected and stored at 4° C. Brains were immediately removed to dissect the Frontal Cortex, the Cortex around the Hippocampus and the Hippocampus. These areas were stored at −80° C. until use. Blood was then centrifuged at 2100×g for 5 min. Resulting plasma was used to quantify the circulating drug and brain tissues were used for biochemical determinations (PFC: prefrontal cortex and HIP: hippocampus).

- IC50 (secreted Aβ1-40): 1200 nM
- IC50 (secreted Aβ1-42): 2100 nM
SMILES: CC(C)CN(CCCN1CCN(CCCN2CCc3[nH]c4ccc(F)cc4c3C2)CC1)CC(C)C [Compound 3.1d, N,N-diisobutyl-3-(4-(3-(8-fluoro-1,3,4,5-tetrahydro-1H-pyrido[4,3-b]indol-2-yl)propyl)piperazin-1-yl)propylamine]
- CTFα (10 μM) (CTFα [1]): 1011 arbitrary units
- CC50 at 24 h [2]: 15000 nM
- HIP CTFα (6-12.5 mg/kg), first line (CTFα [3]; hippocampus, 6 mg/kg (first of the two doses in the head)): 110
- HIP CTFα (6-12.5 mg/kg), second line (CTFα [3]; hippocampus, 12.5 mg/kg (second of the two doses in the head)): 115
- PFC CTFα (6-12.5 mg/kg), first line (CTFα [3]; prefrontal cortex, 6 mg/kg (first of the two doses in the head)): 90
- PFC CTFα (6-12.5 mg/kg), second line (CTFα [3]; prefrontal cortex, 12.5 mg/kg (second of the two doses in the head)): 90
